Experimental data as given in publication PMC5909473, “Isoform-selective activity-based profiling of ERK signaling” (Chemical Science, 2018).

What was measured:
ERK1 [1] = target: T1, ERK1 (Homo sapiens, UniProt P27361); experiment: competition of ATP acyl phosphate probe labelling by […] free ATP, SILAC LC-MS/MS; assay type: cell-based; design: gene MAPK3; native endogenous ERK1 in lung cancer cell proteomes
ERK2 = target: T2, ERK2 (Homo sapiens, UniProt P28482); experiment: as above; assay type: cell-based
T2 construct: gene MAPK1; native endogenous ERK2 in lung cancer cell proteomes

ERK1 [2] = target: T1, ERK1; experiment: competitive ATP acyl phosphate activity-based profiling, SILAC LC-MS/MS in A549 lysate; assay type: biochemical; design: gene MAPK3; native endogenous ERK1 in A549 soluble proteome

T1 sequence (P27361 2-379): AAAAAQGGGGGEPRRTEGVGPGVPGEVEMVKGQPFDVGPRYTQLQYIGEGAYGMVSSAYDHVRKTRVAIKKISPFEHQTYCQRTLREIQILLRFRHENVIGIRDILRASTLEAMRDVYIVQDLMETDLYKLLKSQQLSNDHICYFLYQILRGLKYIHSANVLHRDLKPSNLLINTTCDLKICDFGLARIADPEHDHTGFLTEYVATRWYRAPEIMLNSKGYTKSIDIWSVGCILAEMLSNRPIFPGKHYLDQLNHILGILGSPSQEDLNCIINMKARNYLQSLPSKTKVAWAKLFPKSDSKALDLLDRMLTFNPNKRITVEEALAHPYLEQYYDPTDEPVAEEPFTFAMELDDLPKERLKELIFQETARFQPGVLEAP
T2 sequence (P28482 2-360): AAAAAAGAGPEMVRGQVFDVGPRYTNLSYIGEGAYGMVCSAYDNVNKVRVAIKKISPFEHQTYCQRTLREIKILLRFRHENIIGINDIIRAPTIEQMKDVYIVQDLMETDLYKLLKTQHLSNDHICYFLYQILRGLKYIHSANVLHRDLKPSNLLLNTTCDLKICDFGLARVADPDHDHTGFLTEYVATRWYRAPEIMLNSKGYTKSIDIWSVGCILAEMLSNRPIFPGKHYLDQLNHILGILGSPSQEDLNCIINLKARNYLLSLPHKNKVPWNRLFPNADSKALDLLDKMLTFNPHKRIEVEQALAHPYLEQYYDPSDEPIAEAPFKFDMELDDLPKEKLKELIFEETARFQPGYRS

Row | SMILES | competition of ATP acyl phosphate probe labelling by 1 mM free ATP, SILAC LC-MS/ (ERK1 [1]) | competition of ATP acyl phosphate probe labelling by 1 mM free ATP, SILAC LC-MS/ (ERK2) | IC50 (ERK1 [2]) [nM]
1 | Nc1ncnc2c1ncn2[C@@H]1O[C@H](COP(=O)(O)OP(=O)(O)OP(=O)(O)O)[C@@H](O)[C@H]1O [ATP] | both ERK1 and ERK2 probe-modified peptides were highly competed with ATP treatment | both ERK1 and ERK2 probe-modified peptides were highly competed with ATP treatment | –
2 | CC(C)Nc1cc(-c2c[nH]c(C(=O)N[C@H](CO)c3cccc(Cl)c3)c2)c(Cl)cn1 [BVD-523] | – | – | 15
